ChEMBL document CHEMBL1201862, “PubChem BioAssay data set” (2004)
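Assay format: 96-well plates, 48-hour exposure. Abbreviation: GI50, concentration required for 50% inhibition of growth.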 Activity calls are given as the source filed them. Rule as the data show it: active = GI50 up to about 1.1 µM and inactive = higher.

Tests used:
Assay in all cases: NCI anticancer screen, dose series, 48 h
MDA-N = test system: MDA-N
KM12 = test system: KM12
U-251 = test system: U-251
OVCAR-8 = test system: OVCAR-8
UACC-62 = test system: UACC-62
DU-145 = test system: DU-145
MDA-MB-231 = test system: MDA-MB-231
HCC 2998 = test system: HCC 2998
TK-10 = test system: TK-10
PC-3 = test system: PC-3
HOP-62 = test system: HOP-62
LOX IMVI = test system: LOX IMVI
HL-60 = test system: HL-60
SR = test system: SR
SK-MEL-2 = test system: SK-MEL-2
Hs-578T = test system: Hs-578T
M14 = test system: M14
786-0 = test system: 786-0
NCI-H460 = test system: NCI-H460
SNB-19 = test system: SNB-19
NCI/ADR-RES = test system: NCI/ADR-RES
RXF 393 = test system: RXF 393
EKVX = test system: EKVX
Malme-3M = test system: Malme-3M
CAKI-1 = test system: CAKI-1
K562 = test system: K562
SF-295 = test system: SF-295
COLO 205 = test system: COLO 205
HCT-15 = test system: HCT-15
OVCAR-5 = test system: OVCAR-5
HOP-92 = test system: HOP-92
HCT-116 = test system: HCT-116
HT-29 = test system: HT-29
RPMI-8226 = test system: RPMI-8226
MCF7 = test system: MCF7
UO-31 = test system: UO-31
CCRF-CEM = test system: CCRF-CEM
NCI-H226 = test system: NCI-H226
SF-268 = test system: SF-268
UACC-257 = test system: UACC-257
SW-620 = test system: SW-620
SN12C = test system: SN12C
ACHN = test system: ACHN
SK-MEL-5 = test system: SK-MEL-5
A498 = test system: A498
IGROV-1 = test system: IGROV-1
MOLT-4 = test system: MOLT-4
MDA-MB-435 = test system: MDA-MB-435
A549 = test system: A549
NCI-H522 = test system: NCI-H522
SK-OV-3 = test system: SK-OV-3
SF-539 = test system: SF-539
T47D = test system: T47D
OVCAR-3 = test system: OVCAR-3
SK-MEL-28 = test system: SK-MEL-28
OVCAR-4 = test system: OVCAR-4
SNB-75 = test system: SNB-75
NCI-H23 = test system: NCI-H23
BT-549 = test system: BT-549

CC(C)(C)COC(=O)C(C)(C)NC(=O)C(CC(=O)OCc1ccccc1)NC(=O)OCc1ccccc1 (configuration not stated)
GI50 (MDA-N): 30.9 µM (inactive) | GI50 (KM12): 35.2 µM (inactive) | GI50 (U-251): 31.5 µM (inactive) | GI50 (OVCAR-8): 40.1 µM (inactive) | GI50 (UACC-62): 19.5 µM (inactive) | GI50 (DU-145): 62.2 µM (inactive) | GI50 (MDA-MB-231): 42.9 µM (inactive) | GI50 (HCC 2998): 35.3 µM (inactive) | GI50 (TK-10): 19.4 µM (inactive) | GI50 (PC-3): 25.7 µM (inactive) | GI50 (HOP-62): 75 µM (inactive) | GI50 (LOX IMVI): 43.5 µM (inactive) | GI50 (HL-60): 46.5 µM (inactive) | GI50 (SR): 25.5 µM (inactive) | GI50 (SK-MEL-2): 49 µM (inactive) | GI50 (Hs-578T): 27.9 µM (inactive) | GI50 (M14): 32.1 µM (inactive) | GI50 (786-0): > 100 µM (inactive) | GI50 (NCI-H460): 30 µM (inactive) | GI50 (SNB-19): 38.3 µM (inactive) | GI50 (NCI/ADR-RES): 36.8 µM (inactive) | GI50 (RXF 393): > 100 µM (inactive) | GI50 (EKVX): 54.3 µM (inactive) | GI50 (Malme-3M): 29.6 µM (inactive) | GI50 (CAKI-1): 58.2 µM (inactive) | GI50 (K562): 30.1 µM (inactive) | GI50 (SF-295): 34.4 µM (inactive) | GI50 (COLO 205): 21 µM (inactive) | GI50 (HCT-15): 25.6 µM | GI50 (OVCAR-5): 26.8 µM (inactive) | GI50 (HOP-92): 53.1 µM (inactive) | GI50 (HCT-116): 32.7 µM (inactive) | GI50 (HT-29): 24.8 µM (inactive) | GI50 (RPMI-8226): 26.5 µM (inactive) | GI50 (MCF7): 32.4 µM (inactive) | GI50 (UO-31): 24 µM (inactive) | GI50 (CCRF-CEM): 25.3 µM (inactive) | GI50 (NCI-H226): 29.2 µM (inactive) | GI50 (SF-268): 87.1 µM (inactive) | GI50 (UACC-257): 25.5 µM (inactive) | GI50 (SW-620): 60.4 µM (inactive) | GI50 (SN12C): 25.6 µM (inactive) | GI50 (ACHN): 32.9 µM (inactive) | GI50 (SK-MEL-5): 11.1 µM (inactive) | GI50 (A498): 28.2 µM (inactive) | GI50 (IGROV-1): 61 µM (inactive) | GI50 (MOLT-4): 17.6 µM (inactive) | GI50 (MDA-MB-435): 25.8 µM (inactive) | GI50 (A549): 29.7 µM (inactive) | GI50 (NCI-H522): 24 µM (inactive) | GI50 (SK-OV-3): 35.4 µM (inactive) | GI50 (SF-539): 25.1 µM (inactive) | GI50 (T47D): 20.2 µM (inactive) | GI50 (OVCAR-3): 41.4 µM (inactive) | GI50 (SK-MEL-28): > 100 µM (inactive) | GI50 (OVCAR-4): 50.5 µM (inactive) | GI50 (SNB-75): 13.9 µM (inactive) | GI50 (NCI-H23): 26.7 µM (inactive)

COC(=O)C(NC(=O)C12CCC(C)(C(=O)O1)C2(C)C)c1cc(C(C)(C)C)c(O)c(C(C)(C)C)c1 (configuration not stated)
GI50 (KM12): 23.5 µM (inactive) | GI50 (U-251): 73.1 µM (inactive) | GI50 (OVCAR-8): > 100 µM (inactive) | GI50 (UACC-62): > 100 µM (inactive) | GI50 (DU-145): > 100 µM (inactive) | GI50 (MDA-MB-231): > 100 µM (inactive) | GI50 (TK-10): 57.7 µM (inactive) | GI50 (PC-3): 67 µM (inactive) | GI50 (HOP-62): > 100 µM (inactive) | GI50 (LOX IMVI): > 100 µM (inactive) | GI50 (HL-60): 4.95 µM (inactive) | GI50 (SR): 68.2 µM (inactive) | GI50 (SK-MEL-2): > 100 µM (inactive) | GI50 (Hs-578T): 94 µM (inactive) | GI50 (M14): > 100 µM (inactive) | GI50 (786-0): > 100 µM (inactive) | GI50 (SNB-19): > 100 µM (inactive) | GI50 (NCI/ADR-RES): > 100 µM (inactive) | GI50 (RXF 393): 83.2 µM (inactive) | GI50 (EKVX): > 100 µM (inactive) | GI50 (Malme-3M): > 100 µM (inactive) | GI50 (BT-549): > 100 µM (inactive) | GI50 (CAKI-1): > 100 µM (inactive) | GI50 (K562): 64 µM (inactive) | GI50 (SF-295): > 100 µM (inactive) | GI50 (COLO 205): 49.4 µM (inactive) | GI50 (HCT-15): 91.2 µM | GI50 (OVCAR-5): > 100 µM (inactive) | GI50 (HOP-92): > 100 µM (inactive) | GI50 (HCT-116): 64.3 µM (inactive) | GI50 (HT-29): 72.9 µM (inactive) | GI50 (RPMI-8226): 14.7 µM (inactive) | GI50 (MCF7): 47.5 µM (inactive) | GI50 (UO-31): 95.9 µM (inactive) | GI50 (CCRF-CEM): 39.9 µM (inactive) | GI50 (NCI-H226): > 100 µM (inactive) | GI50 (SF-268): > 100 µM (inactive) | GI50 (SW-620): 77.3 µM (inactive) | GI50 (ACHN): > 100 µM (inactive) | GI50 (SK-MEL-5): 21.7 µM (inactive) | GI50 (A498): > 100 µM (inactive) | GI50 (IGROV-1): > 100 µM (inactive) | GI50 (MOLT-4): 42.2 µM (inactive) | GI50 (MDA-MB-435): > 100 µM (inactive) | GI50 (A549): > 100 µM (inactive) | GI50 (NCI-H522): > 100 µM (inactive) | GI50 (SK-OV-3): > 100 µM (inactive) | GI50 (SF-539): > 100 µM (inactive) | GI50 (T47D): 81.7 µM (inactive) | GI50 (OVCAR-3): > 100 µM (inactive) | GI50 (SK-MEL-28): > 100 µM (inactive) | GI50 (OVCAR-4): > 100 µM (inactive) | GI50 (SNB-75): > 100 µM (inactive) | GI50 (NCI-H23): > 100 µM (inactive)
